In one test the test system is interferon (α). Briefly: Cytokine induction in human cells: interferon secreted by PBMCs, ELISA. Format: cell-based. To be noted: PBMC, incubated 18 to 24 hours, interferon determined by ELISA, read-out: Lowest Effective Concentration (μM) Interferon. The source says: (§1) An in vitro human blood cell system was used to assess cytokine induction by compounds of the invention. Activity is based on the measurement of interferon and tumor necrosis factor (α) (IFN and TNF, respectively) secreted into culture media as described by Testerman et. al. In “Cytokine Induction by the Immunomodulators Imiquimod and S-27609”, Journal of Leukocyte Biology, 58, 365-372 (September, 1995).
(§2) Whole blood is collected by venipuncture into EDTA vacutainer tubes from healthy human donors. Peripheral blood mononuclear cells (PBMCs) are separated from whole blood by density gradient centrifugation using Histopaque®-1077 (Sigma Chemicals, St. Louis, Mo.). The PBMCs are suspended at 3-4×10^6 cells/mL in RPMI 1640 medium containing 10% fetal bovine serum, 2 mM L-glutamine and 1% penicillin/streptomycin solution (RPMI complete). The PBMC suspension is added to 48 well flat bottom sterile tissue culture plates (Costar, Cambridge, Mass. or Becton Dickinson Labware, Lincoln Park, N.J.) containing an equal volume of RPMI complete media containing test compound.
(§3) The compounds are solubilized in dimethyl sulfoxide (DMSO). The DMSO concentration should not exceed a final concentration of 1% for addition to the culture wells.
(§4) The solution of test compound is added at 60 μM to the first well containing RPMI complete and serial (three fold or ten fold) dilutions are made. The PBMC suspension is then added to the wells in an equal volume, bringing the test compound concentrations to the desired range. The final concentration of PBMC suspension is 1.5-2×10^6 cells/mL. The plates are covered with sterile plastic lids, mixed gently and then incubated for 18 to 24 hours at 37° C. in a 5% carbon dioxide atmosphere.
(§5) Following incubation the plates are centrifuged for 5-10 minutes at 1000 rpm (˜200×g) at 4° C. The cell culture supernatant is removed with a sterile polypropylene pipet and transferred to sterile polypropylene tubes. Samples are maintained at −30 to −70° C. until analysis. The samples are analyzed for interferon (α) by either ELISA or bioassay and for tumor necrosis factor (α) by ELISA.
Interferon (α) concentration is determined by ELISA using a Human Multi-Species kit from PBL Biomedical Laboratories, New Brunswick, N.J.
(§6) The table below lists the lowest concentration found to induce interferon and the lowest concentration found to induce tumor necrosis factor for each compound. […] Unless otherwise indicated, the interferon biosynthesis was determined by ELISA.

For test [1], the system named is tumor necrosis factor (α). The experiment in a line: Cytokine induction in human cells: tumor necrosis factor (α) secreted by PBMCs, ELISA. The test is classed as cell-based. Particulars: PBMC, incubated 18 to 24 hours, TNF determined by ELISA, read-out: Lowest Effective Concentration (μM) Tumor Necrosis Factor.
From the text: as §1, §2, §3, §4, §5
Tumor necrosis factor (α) (TNF)concentration is determined using ELISA kits available from Genzyme, Cambridge, Mass.; R&D Systems, Minneapolis, Minn.; or Pharmingen, San Diego, Calif.
as §6

Consider `C#CCCC(=O)NCCCCn1cnc2c(N)nc3ccccc3c21` [Example 115], for which the figures for the minimal effective concentration (in the test on interferon (α); in test [1]) were 1.11 µM and 30 µM, respectively.
The matching figures for `C=CCCC(=O)NCCCCn1cnc2c(N)nc3ccccc3c21` [Example 116]: 0.37 µM and 10 µM.
The like results for `COC(=O)CCCC(=O)NCCCCn1cnc2c(N)nc3ccccc3c21` [Example 117] were, in that order, 3.33 µM and greater than 30 µM.
The like results for `CC(=O)CCCC(=O)NCCCCn1cnc2c(N)nc3ccccc3c21` [Example 118] were, in that order, 1.11 µM and greater than 30 µM.
With `C#CCCCCCCCCC(=O)NCCCCn1cnc2c(N)nc3ccccc3c21` [Example 119], the minimal effective concentration (with interferon (α); in test [1]) was greater than 30 µM throughout.
As to `COc1ccc(CN(CCCCn2cnc3c(N)nc4ccccc4c32)C(C)=O)cc1` [Example 120], the minimal effective concentration with interferon (α) was 0.37 µM; in test [1], greater than 30 µM.
The like results for `CC(=O)N(CCCCn1cnc2c(N)nc3ccccc3c21)Cc1ccc(Br)cc1` [Example 121] were, in that order, 1.11 µM and greater than 30 µM.
The matching figures for `CC(=O)N(CCCCn1cnc2c(N)nc3ccccc3c21)Cc1cc(Br)ccc1O` [Example 122]: 3.33 µM and greater than 30 µM.
Turning to `CCCCOc1ccc(CN(CCCCn2cnc3c(N)nc4ccccc4c32)C(C)=O)cc1` [Example 123], the values for the minimal effective concentration (in the test with interferon (α); in test [1]) were 3.33 µM and greater than 30 µM, respectively.
As to `CC(=O)N(CCCCn1cnc2c(N)nc3ccccc3c21)Cc1ccccc1Cl` [Example 124], the minimal effective concentration was 1.11 µM with interferon (α) and 3.33 µM in test [1].
The like results for `CC(=O)N(CCCCn1cnc2c(N)nc3ccccc3c21)Cc1cc([N+](=O)[O-])ccc1Cl` [Example 125] were, in that order, 1.11 µM and greater than 30 µM.
The matching figures for `CC(=O)N(CCCCn1cnc2c(N)nc3ccccc3c21)Cc1cc(Cl)ccc1[N+](=O)[O-]` [Example 126]: 3.33 µM and greater than 30 µM.
The matching figures for `CC(=O)N(CCCCn1cnc2c(N)nc3ccccc3c21)Cc1ccccc1Sc1ccc(Cl)cc1` [Example 127]: greater than 30 µM and greater than 30 µM.
As to `CC(=O)N(CCCCn1cnc2c(N)nc3ccccc3c21)Cc1cc(Cl)cc(Cl)c1` [Example 128], the minimal effective concentration was 3.33 µM in the test with interferon (α) and 1.11 µM in test [1].
On to `CC(=O)N(CCCCn1cnc2c(N)nc3ccccc3c21)Cc1ccc(F)c(F)c1` [Example 129], for which the minimal effective concentration is 3.33 µM in the test on interferon (α) and greater than 30 µM in test [1].
The matching figures for `COc1ccc(OC)c(CN(CCCCn2cnc3c(N)nc4ccccc4c32)C(C)=O)c1` [Example 130]: 1.11 µM and 10 µM.
The like results for `COc1cccc(CN(CCCCn2cnc3c(N)nc4ccccc4c32)C(C)=O)c1OC` [Example 131] were, in that order, 3.33 µM and greater than 30 µM.
In the case of `CC(=O)N(CCCCn1cnc2c(N)nc3ccccc3c21)Cc1ccc(C)cc1C` [Example 132], the minimal effective concentration in the test with interferon (α) is 1.11 µM; in test [1], 3.33 µM.
The matching figures for `CCc1ccc(CN(CCCCn2cnc3c(N)nc4ccccc4c32)C(C)=O)o1` [Example 133]: 3.33 µM and greater than 30 µM.
The matching figures for `CC(=O)N(CCCCn1cnc2c(N)nc3ccccc3c21)Cc1ccco1` [Example 134]: 0.37 µM and greater than 30 µM.
The matching figures for `CC(=O)N(CCCCn1cnc2c(N)nc3ccccc3c21)Cc1ccoc1` [Example 135]: 0.12 µM and greater than 30 µM.
Consider `CC(=O)N(CCCCn1cnc2c(N)nc3ccccc3c21)CCCc1ccccc1` [Example 136], for which the figures for the minimal effective concentration (with interferon (α); in test [1]) were 1.11 µM and greater than 30 µM, respectively.
Turning to `CCCCCCCCN(CCCCn1cnc2c(N)nc3ccccc3c21)C(C)=O` [Example 137], the minimal effective concentration is 10 µM in the test with interferon (α) and greater than 30 µM in test [1].
The like results for `CC(=O)N(CCCCn1cnc2c(N)nc3ccccc3c21)Cc1cccc2ccccc12` [Example 138] were, in that order, 1.11 µM and greater than 30 µM.
The like results for `COc1ccc2ccccc2c1CN(CCCCn1cnc2c(N)nc3ccccc3c21)C(C)=O` [Example 139] were, in that order, greater than 30 µM and greater than 30 µM.
As for `CC(=O)N(CCCCn1cnc2c(N)nc3ccccc3c21)Cc1ccc([N+](=O)[O-])cc1` [Example 140], the minimal effective concentration was 1.11 µM in the test on interferon (α) and greater than 30 µM in test [1].
The like results for `CC(=O)N(CCCCn1cnc2c(N)nc3ccccc3c21)Cc1ccccc1[N+](=O)[O-]` [Example 141] were, in that order, 0.37 µM and greater than 30 µM.
Consider `CC(=O)N(CCCCn1cnc2c(N)nc3ccccc3c21)Cc1ccncc1` [Example 143], for which the minimal effective concentration was 0.12 µM with interferon (α) and greater than 30 µM in test [1].
The like results for `CC(=O)N(CCCCn1cnc2c(N)nc3ccccc3c21)Cc1ccccc1C` [Example 144] were, in that order, 1.11 µM and greater than 30 µM.
The like results for `COc1ccc(CN(CCCCn2cnc3c(N)nc4ccccc4c32)C(C)=O)c(OC)c1OC` [Example 145] were, in that order, 1.11 µM and greater than 30 µM.
The like results for `COc1cc(CN(CCCCn2cnc3c(N)nc4ccccc4c32)C(C)=O)cc(OC)c1OC` [Example 146] were, in that order, 3.33 µM and greater than 30 µM.
Take `COCCc1nc2c(N)nc3ccccc3c2n1CCCCNC(=O)C=C(C)C` [Example 148]: the minimal effective concentration with interferon (α) came to 0.01 µM; in test [1], 1 µM.
The matching figures for `COCCc1nc2c(N)nc3ccccc3c2n1CCCCNC(=O)C1CCCC1` [Example 149]: 0.001 µM and 1 µM.
Consider `COCCc1nc2c(N)nc3ccccc3c2n1CCCCNC(=O)C1CCCCC1` [Example 150], for which the minimal effective concentration in the test with interferon (α) turned out to be 0.001 µM; in test [1] it was 0.1 µM.
The like results for `COCCc1nc2c(N)nc3ccccc3c2n1CCCCNC(=O)c1ccccc1C` [Example 151] were, in that order, 0.0001 µM and greater than 10 µM.
The like results for `COCCc1nc2c(N)nc3ccccc3c2n1CCCCNC(=O)[C@@H]1C[C@H]1c1ccccc1` [Example 153] were, in that order, 0.0001 µM and 0.1 µM.
The like results for `COCCc1nc2c(N)nc3ccccc3c2n1CCCCNC(=O)c1cccc2ccccc12` [Example 154] were, in that order, 0.0001 µM and greater than 10 µM.
`COCCc1nc2c(N)nc3ccccc3c2n1CCCCNC(=O)c1ccc(C(C)(C)C)cc1` [Example 156]: the results for the minimal effective concentration (with interferon (α); in test [1]) were 0.001 µM and 1 µM, respectively.
`COCCc1nc2c(N)nc3ccccc3c2n1CCCCNC(=O)c1ccc(OC)c(OC)c1` [Example 158]: the values for the minimal effective concentration (in the test on interferon (α); in test [1]) were 0.001 µM and 1 µM, respectively.
The like results for `COCCc1nc2c(N)nc3ccccc3c2n1CCCCNC(=O)CCCCCCC(=O)OC` [Example 159] were, in that order, 0.01 µM and 1 µM.
For the compound `COCCc1nc2c(N)nc3c(c2n1CCCCNC(=O)c1ccccc1)CCCC3` [Example 172], the minimal effective concentration amounted to 0.0001 µM in the test with interferon (α) and 1 µM in test [1].
The matching figures for `COCCc1nc2c(N)nc3c(c2n1CCCCNC(=O)c1ccncc1)CCCC3` [Example 173]: 0.001 µM and 1 µM.
The matching figures for `COCCc1nc2c(N)nc3c(c2n1CCCCNC(=O)Cc1ccccc1)CCCC3` [Example 174]: 0.001 µM and 1 µM.

These data come from US6756382B2, “Amide substituted imidazoquinolines” (3M Innovative Properties Company, priority 1999, dated 2004).
